“Also recorded” adds a separate entry of the source.
Legend:
HSC = HSC expansion in mice given Alda-1 by continuous subcutaneous infusion; format: in vivo, mice (wild-type C57BL/6N)
Experimental: (§1) Mice (wild-type C57BL/6N were administered with Alda-1 (10 mg/kg.day) or vehicle control (50% DMSO/50% PEG-400) by continuous infusion via subcutaneous osmatic pumps for 3 months.
(§2) Vehicle control and Alda-1 treated mice were then analyzed for HSC functionality. […] With reference to FIG. 1A and FIG. 1B, error bars show standard deviation, significance computed with Student's t-test. *=p≤0.05.

[1] = Tolerability of chronic Alda-1 administration in vivo; settings: 10 mg/kg.day continuous subcutaneous infusion, 3 months
Experimental: as §1, §2

HSCs = assay: Competitive repopulation with HSCs from Alda-1 treated and untreated donors; format: in vivo, mice; settings: FIG. 2
Source text: To measure the effects of ALDH2 activation on HSC potency, recipient mice were transplanted with purified HSCs from two donors, one of which had received Alda-1 prior to collection of HSCs for transplant, and another of the same strain which had not received Alda-1 prior to collection for transplant. The two donors were genetically the same except for a difference in the CD45 gene, which allows the blood cells from each to be distinguished from each other and the recipient.
The Alda-1 treated donor had received Alda-1 subcutaneously for 2 months prior to HSC collection. The cells from the treated and untreated donors were mixed together prior to transplant at fixed ratios of 1:3 (25%), 1:1 (50%), or 3:1 (75%). A total of 3000 HSCs were given intravenously to immunodeficient (γc^-/- Kit^W41/W41) mice after low dose irradiation. The polymorphonuclear neutrophils (PMN, aka granulocytes) in each recipient mouse were tested at 6 weeks after transplant to determine what proportion of the PMN were derived from each HSC donor.
With reference to FIG. 2, the X-axis represents percentage of total cells infused which were from Alda-1 treated donor and the Y-axis represents the actual percentage of PMN observed after HSCT to be derived from Alda-1 treated donor. The linear line represents the predicted ratio if there were no difference in the repopulating ability of the HSC cells.

O=C(NCc1ccc2c(c1)OCO2)c1c(Cl)cccc1Cl [Alda-1]
HSC expansion (in words) (HSC; Alda-1 10 mg/kg.day, subcutaneous osmotic pumps, 3 months, vs vehicle control): significant HSC expansion
increase in (LT)-HSCs (HSC; Alda-1 10 mg/kg.day, subcutaneous osmotic pumps, 3 months, vs vehicle control, FIG. 1A): 4 fold
increase in (ST)-HSCs (HSC; Alda-1 10 mg/kg.day, subcutaneous osmotic pumps, 3 months, vs vehicle control, FIG. 1B): 2 fold
long-term mouse HSC (in words) (HSC; FIG. 1A legend): increases long-term mouse HSC
short-term HSC (in words) (HSC; FIG. 1B legend): increases short-term HSC
tolerability of chronic administration [1]: well tolerated
origin of PMN in recipient vs ratio of transplanted cells (HSCs; 6 weeks after transplant, treated:untreated donor cells 1:3, 1:1 or 3:1): more likely to be derived from the Alda-1 treated donor than predicted
potency / repopulating ability of HSC in recipient (HSCs; donor given Alda-1 subcutaneously for 2 months, 3000 HSCs i.v. to irradiated immunodeficient mice): increased repopulating ability; also recorded: increased the potency of HSC in repopulating recipient
